The IC50 is the concentration at which inhibition is half-maximal. Read a low IC50 as inhibition by little substance.

The assay in a line: Concentration required for 50% Inhibition of activity against Yersinia Protein-tyrosine phosphatase.
In the case of `O=C(O)C(=O)c1ccc(O)cc1` [(4-Hydroxy-phenyl)-oxo-acetic acid], the 50% inhibitory concentration (IC50) was determined as 200 µM.
Next, `O=C(O)C(=O)c1ccc(OCc2ccccc2COc2ccc(C(=O)C(=O)O)cc2)cc1` [{4-[2-(4-Oxalyl-phenoxymethyl)-benzyloxy]-phenyl}-oxo-acetic acid]: 8.5 µM.
Next, `O=C(O)C(=O)c1ccc(OCc2cc(COc3ccc(C(=O)C(=O)O)cc3)cc(COc3ccc(C(=O)C(=O)O)cc3)c2)cc1` [{4-[3,5-Bis-(4-oxalyl-phenoxymethyl)-benzyloxy]-phenyl}-oxo-acetic acid]: 1.7 µM.
Next, `O=C(O)C(=O)c1ccc(OCc2cccc(COc3ccc(C(=O)C(=O)O)cc3)c2)cc1` [{4-[3-(4-Oxalyl-phenoxymethyl)-benzyloxy]-phenyl}-oxo-acetic acid]: 4.1 µM.
`O=C(O)C(=O)c1ccc(OCc2ccc(COc3ccc(C(=O)C(=O)O)cc3)cc2)cc1` [{4-[4-(4-Oxalyl-phenoxymethyl)-benzyloxy]-phenyl}-oxo-acetic acid]: the IC50 was 0.7 µM.

For the origin of these results see BindingDB's records for doi:10.1021/jm020093q (Brown University, 2002).
